Test results: PMC9916770, “Lycorine Carbamate Derivatives for Reversing P-glycoprotein-Mediated Multidrug Resistance in Human Colon Adenocarcinoma Cells” (International Journal of Molecular Sciences, 2023)

Experiments:
[1] = tested on: Colo205 cells; experiment: MTT antiproliferative assay, sensitive cells; type: cell-based, human; conditions: for IC50: Homo sapiens, COLO 205, sensitive Colo205, MTT, 72 h, mean ± SD; for SI (selectivity index) C/A: IC50 MRC-5 / IC50 Colo205
Method: (§1) The human colon adenocarcinoma cell lines Colo205 doxorubicin-sensitive (CCL-222, ATCC, Manassas, VA, USA) and the resistant Colo320/MDR-LRP expressing P-gp were purchased from LGC Promochem (Teddington, UK). The MRC-5 human embryonal lung fibroblast cell line (CCL-171, ATCC) was purchased from Sigma-Aldrich (Merck KGaA, Darmstadt, Germany). The human colon adenocarcinoma cells (Colo205 and Colo320) were cultured in an RPMI 1640 medium supplemented with 10% fetal bovine serum (FBS), 2 mM L-glutamine, 1 mM Na-pyruvate, and 100 mM HEPES. The semi-adherent human colon cancer cells were detached with a trypsin-Versene (EDTA) solution for 5 min at 37 °C. The MRC-5 human embryonal lung fibroblast cells were cultured in EMEM containing 4.5 g/L of glucose and supplemented with a non-essential amino acid mixture, a selection of vitamins, and 10% FBS. The cell lines were incubated at 37 °C, 5% CO2, and 95% air atmosphere.
(§2) The antiproliferative effect of the compounds was tested in decreasing serial dilutions of compounds (starting with 100 µM, then two-fold serial dilution) on human cell lines (Colo205, Colo320, and MRC-5) in 96-well flat-bottomed microtiter plates. Firstly, the compounds were diluted in 100 µL of the medium, and then 6 × 10^3 cells (Colo205 and Colo320), in 100 µL of medium, were added to each well, excluding the medium control wells. The MRC-5 adherent cell line was seeded in the EMEM medium for at least 4 h before the assay. The two-fold serial dilutions of the compounds were made in a separate plate (100–0.19 μM) and then transferred to the plates containing the adherent corresponding cell line. Culture plates were incubated at 37 °C for 72 h, and at the end of the incubation period, 20 μL of MTT (thiazolyl blue tetrazolium bromide) solution (from a 5 mg/mL stock solution) was added to each well and incubated for an additional 4 h. Then, 100 μL of sodium dodecyl sulfate (SDS) solution (10% SDS in 0.01 M HCl) was added to each well, and the plates were further incubated at 37 °C overnight in a CO2 incubator. Cell growth was determined by measuring the optical density (OD) at 540/630 nm with a Multiscan EX ELISA reader (Thermo Labsystems, Cheshire, WA, USA). […] IC50 values and the standard deviation (SD) of triplicate experiments were calculated by using GraphPad Prism 5 software for Windows. Doxorubicin (2 mg/mL, Teva Pharmaceuticals, Budapest, Hungary) was used as a positive control and the vehicle DMSO as the negative control. (1) IC50=[ODsample−ODmedium control/ODcell control−ODmedium control]×100
(§3) The relative resistance (RR) was calculated as the ratio of the IC50 value in the resistant cancer cells and the IC50 in the sensitive cancer cell lines. The selectivity indexes (SI) were calculated as the ratio of the IC50 values in the non-tumor cells and the IC50 in the cancer cell lines. The activity of the compounds toward cancer cells is considered strongly selective if the selectivity index (SI) value is higher than 6, moderately selective if 3 < SI < 6, slightly selective if 1 < SI < 3, and non-selective if SI is lower than 1.

[2] = tested on: Colo320 cells; experiment: MTT antiproliferative assay, resistant cells; type: cell-based, human; conditions: for IC50: Homo sapiens, COLO 320, resistant Colo320, MTT, 72 h, mean ± SD, read-out: IC50 Colo320 (B); for SI (selectivity index) C/B: IC50 MRC-5 / IC50 Colo320; for RR (relative resistance ratio) B/A: IC50 resistant Colo320 / IC50 sensitive Colo205
Method: as §1, §2, §3

[3] = tested on: Colo320 cells; experiment: Checkerboard drug combination assay with doxorubicin; type: cell-based, human; conditions: for Type of interaction: Colo320; for CI at IC50 (combination index): Colo320, 50% growth inhibition
Method: The interaction of lycorine (1) and some selected derivatives (2, 5, 9, 13, 16, 19, 25, and 26) in combination with the chemotherapeutic drug doxorubicin was performed by the checkerboard assay, a widely used technique for assessing drug interactions, in resistant human Colo320 colon adenocarcinoma cells. The type of drug–drug interaction was evaluated by using the Chou and Talalay method for drug combination and expressed using the combination index (CI) values, and therefore evaluated as synergism (CI < 1), additive (CI = 1), or antagonist (CI > 1).
Drug combination interactions between the compounds and the chemotherapeutic drug doxorubicin were assessed by the checkboard microplate assay on the resistant Colo320, expressing the P-gp transporter. Doxorubicin was serially diluted in the horizontal direction in 100 µL, starting with 8.6 µM, and the compounds were subsequently diluted in the vertical direction in 50 µL. The starting concentration was determined based on the IC50 values. The cells were resuspended in a culture medium and distributed into each well in 50 µL, containing 6 × 10^3 cells, to a final volume of 200 µL per well. The plates were incubated for 72 h at 37 °C in a CO2 incubator, and the cell growth was determined by the MTT staining method, as described previously. Drug interactions were evaluated using CompuSyn software to plot 4 or 5 data points for each ratio (ref software). The results were expressed in terms of combination index (CI) values of 50% growth inhibition, in which a CI value close to 1 indicates additivity, while a CI < 1 is defined as synergy, and a CI > 1 as antagonism.

[4] = target: T1, recombinant human P-gp membranes (Homo sapiens, UniProt P08183); experiment: P-gp-Glo ATPase activity assay; type: biochemical; conditions: 25 µM, basal activity = 100%
T1 construct: purchased Promega
Method: To evaluate the type of interaction between selected compounds and P-gp, namely to determine if they interacted as stimulators or inhibitors, the ATPase activity assay (P-gp.Glo^TM) was performed, using human P-gp membranes. This assay is based on the ATP consumption necessary for the efflux, obtained from ATP hydrolysis by light-generating firefly luciferase reaction. […] Vanadate is a selective and strong P-gp inhibitor. Therefore, the compounds can be classified as inhibitors or stimulators/substrates by comparing P-gp ATPase activity with the basal activity; stimulators give results higher than 100%, while inhibitors result below 100% of the basal activity. […] The results are presented in Figure 2 as the difference between the luciferase luminescence observed when treated with the tested compounds and with vanadate and compared with the basal activity (100%).
The P-glycoprotein ATPase assay was assessed using the P-gp-Glo^TM Assay System (Promega, WI, USA). The assay was performed according to the manufacturer’s instructions. Briefly, 20 µL of recombinant human P-gp membranes (1.25 mg/mL), expressing high levels of human P-gp, were incubated in 20 µL of P-gp-Glo^TM assay buffer for 5 min at 37 °C. […] The reaction was initiated by adding 10 µL of 25 mM MgATP, and incubated at 37 °C for 40 min. The reaction was stopped after adding 50 µL of ATP Detection Reagent, and the samples and controls were incubated at room temperature for 20 min. The emitted luciferase-generated luminescent signal was measured in a CLARIOstar Plus plate reader (BMG Labtech, Ortenberg, Germany) at 580 nm. The relative ATPase activity was calculated based on the ratio between the luminescence measured of the P-gp ATPase activity of each compound and the basal P-gp ATPase activity according to Equation (3): (3) Relative ATPase activity= Lumtreated−Lumuntreated /LumNa3VO4/Lumuntreated

[5] = tested on: MRC-5 cells; experiment: MTT antiproliferative assay, normal lung fibroblasts; type: cell-based; conditions: Homo sapiens, normal embryonal lung fibroblasts, 72 h, mean ± SD, read-out: IC50 MCR-5 (C)
Method: as §1, §2, §3

T1 sequence (P08183 whole entry): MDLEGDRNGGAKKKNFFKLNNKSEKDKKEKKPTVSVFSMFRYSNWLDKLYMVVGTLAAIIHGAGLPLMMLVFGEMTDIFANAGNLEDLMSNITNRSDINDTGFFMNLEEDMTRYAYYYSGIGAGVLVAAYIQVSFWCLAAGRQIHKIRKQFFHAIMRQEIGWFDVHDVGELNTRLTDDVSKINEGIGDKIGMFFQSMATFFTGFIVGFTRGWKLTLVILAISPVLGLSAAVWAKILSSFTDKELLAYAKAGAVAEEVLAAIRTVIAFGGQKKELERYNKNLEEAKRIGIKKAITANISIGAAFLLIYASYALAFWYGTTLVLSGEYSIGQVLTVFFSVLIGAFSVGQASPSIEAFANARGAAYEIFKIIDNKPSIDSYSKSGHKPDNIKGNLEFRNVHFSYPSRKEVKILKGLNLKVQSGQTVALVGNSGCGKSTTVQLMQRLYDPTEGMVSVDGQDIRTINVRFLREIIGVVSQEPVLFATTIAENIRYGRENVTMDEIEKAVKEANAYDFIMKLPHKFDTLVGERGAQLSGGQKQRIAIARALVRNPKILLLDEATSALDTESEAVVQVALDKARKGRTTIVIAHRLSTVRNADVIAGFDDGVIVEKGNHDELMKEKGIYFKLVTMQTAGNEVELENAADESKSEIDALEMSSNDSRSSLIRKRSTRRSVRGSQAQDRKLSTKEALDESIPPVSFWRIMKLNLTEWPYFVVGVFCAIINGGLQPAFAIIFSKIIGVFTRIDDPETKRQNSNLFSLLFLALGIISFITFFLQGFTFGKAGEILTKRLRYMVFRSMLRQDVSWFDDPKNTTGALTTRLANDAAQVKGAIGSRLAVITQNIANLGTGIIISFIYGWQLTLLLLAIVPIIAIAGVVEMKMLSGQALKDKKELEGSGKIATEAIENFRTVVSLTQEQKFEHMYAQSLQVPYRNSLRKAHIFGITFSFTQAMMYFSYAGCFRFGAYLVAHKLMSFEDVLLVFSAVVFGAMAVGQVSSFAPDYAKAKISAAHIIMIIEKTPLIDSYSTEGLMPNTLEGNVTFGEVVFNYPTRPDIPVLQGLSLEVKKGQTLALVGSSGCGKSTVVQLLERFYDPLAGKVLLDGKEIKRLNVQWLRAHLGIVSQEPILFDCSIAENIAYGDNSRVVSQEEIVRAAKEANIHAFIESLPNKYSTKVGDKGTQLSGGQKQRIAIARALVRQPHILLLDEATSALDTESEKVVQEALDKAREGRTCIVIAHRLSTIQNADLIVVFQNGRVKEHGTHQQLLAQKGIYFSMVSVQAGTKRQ

Row | IC50 [1] [µM] | IC50 [2] [µM] | CI at IC50 (combination index) [3] | Effect on basal P-gp ATPase activity [4] | SMILES | SI (selectivity index) C/A [1] | SI (selectivity index) C/B [2] | RR (relative resistance ratio) B/A [2] | Type of interaction [3] | IC50 [5] [µM]
1 | 26.5 ± 0.476 | 7.64 ± 0.15 | 0.88 | decreased the basal activity | CC(C)(C)c1ccc(CNC(=O)OC2C=C3CCN4Cc5cc6c(cc5C(C2O)C34)OCO6)cc1 (centres unmarked) [Compound 19, Lycorine 2-yl [4-(tert-butyl)benzyl]carbamate] | 1.63 | 5.66 | 0.28 | Slight synergism | 43.3 ± 0.75
2 | 19.3 ± 0.87 | 40.4 ± 1.9 | 0.88 | decreased the basal activity | O=C(NCc1ccc(Cl)cc1)OC1C=C2CCN3Cc4cc5c(cc4C(C1O)C23)OCO5 (centres unmarked) [Compound 2, Lycorine 2-yl (4-chlorobenzyl)carbamate] | 3.01 | 1.44 | 2.09 | Slight synergism | 58.1 ± 0.83

Continued, compound first:

Row | SMILES | IC50 [1] [µM] | IC50 [2] [µM] | CI at IC50 (combination index) [3] | Effect on basal P-gp ATPase activity [4] | SI (selectivity index) C/A [1] | SI (selectivity index) C/B [2] | RR (relative resistance ratio) B/A [2] | Type of interaction [3] | IC50 [5] [µM]
3 | O=C(NCCc1ccccc1)OC1C=C2CCN3Cc4cc5c(cc4C(C1OC(=O)NCCc1ccccc1)C23)OCO5 (centres unmarked) [Compound 9, Lycorine 1,2-diyl bis(phenethylcarbamate)] | > 100 | 10.4 ± 0.28 | 0.56 | decreased the basal activity | <0.045 | 0.43 | <0.10 | Synergism | 
4 | Cc1ccc(CNC(=O)OC2C=C3CCN4Cc5cc6c(cc5C(C2OC(=O)NCc2ccc(C)cc2)C34)OCO6)cc1 (centres unmarked) [Compound 5, Lycorine 1,2-diyl bis[(4-methylbenzyl)carbamate]] | > 100 | 32.7 ± 0.62 | 0.13 | decreased the basal activity | <0.057 | 0.17 |  | Strong synergism | 5.75 ± 0.47
5 | O=C(NCCc1ccc(Cl)cc1)OC1C=C2CCN3Cc4cc5c(cc4C(C1O)C23)OCO5 (centres unmarked) [Compound 26, Lycorine 2-yl (4-chlorophenethyl) carbamate] | 53.9 ± 0.98 | 37.9 ± 1.37 | 0.88 | decreased the basal activity | 0.96 | 1.37 |  | Slight synergism | 52.1 ± 3.09
6 | O=C(OC1C=C2CCN3Cc4cc5c(cc4C(C1O)C23)OCO5)N1CCc2ccccc2C1 (centres unmarked) [Compound 13, Lycorine 2-yl 3,4-dihydroisoquinoline-2(1H)-carboxylate] | 96.26 ± 0.33 | 78 ± 3.82 | 0.69 |  |  |  |  | Synergism | > 100
7 | O=C(NCCc1ccc(Cl)cc1)OC1C=C2CCN3Cc4cc5c(cc4C(C1OC(=O)NCCc1ccc(Cl)cc1)C23)OCO5 (centres unmarked) [Compound 25, Lycorine 1,2-diyl bis[(4-chlorophenethyl)carbamate]] | 47.7 ± 1.35 | 3.14 ± 0.05 | 0.50 | decreased the basal activity | 0.099 | 1.51 | 0.065 | Synergism | 4.75 ± 0.08
